Results reported in PubChem BioAssay (NCI).
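Step 1: Grow cells in 96-well plates. Step 2: Expose to compound for 48 hours at 5 concentrations. Step 3: Interpolate endpoints linearly; if unreached, use highest concentration. The concentration for 50% growth inhibition is given as GI50. TGI: concentration producing complete growth inhibition.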

Columns and labels:
Test in all cases: inhibition of tumour cell growth, NCI panel, 48 h
[1] = tested on: CAKI-1 renal
[2] = tested on: OVCAR-3 ovarian
[3] = tested on: HCC-2998 colon
[4] = tested on: IGROV1 ovarian
[5] = tested on: ACHN renal
[6] = tested on: COLO 205 colon
[7] = tested on: MDA-MB-231 breast
[8] = tested on: K-562 leukemia
[9] = tested on: HCT-15 colon
[10] = tested on: A498 renal
[11] = tested on: MALME-3M melanoma
[12] = tested on: OVCAR-8 ovarian
[13] = tested on: CCRF-CEM leukemia
[14] = tested on: HS 578T breast
[15] = tested on: EKVX NSCLC
[16] = tested on: A549 NSCLC
[17] = tested on: HOP-62 NSCLC
[18] = tested on: TK-10 renal
[19] = tested on: HT29 colon
[20] = tested on: SK-OV-3 ovarian
[21] = tested on: U251 CNS
[22] = tested on: MCF7 breast
[23] = tested on: NCI-H226 lung
[24] = tested on: NCI-H522 lung
[25] = tested on: SF-295 CNS
[26] = tested on: MOLT-4 leukemia
[27] = tested on: SF-268 CNS
[28] = tested on: SK-MEL-5 melanoma
[29] = tested on: HL-60(TB) leukemia
[30] = tested on: LOX IMVI melanoma
[31] = tested on: PC-3 prostate
[32] = tested on: UACC-257 melanoma
[33] = tested on: NCI-H460 lung
[34] = tested on: MDA-MB-435
[35] = tested on: SN12C renal
[36] = tested on: KM12 colon
[37] = tested on: OVCAR-4 ovarian
[38] = tested on: DU-145 prostate
[39] = tested on: RPMI-8226 leukemia
[40] = tested on: SR leukemia
[41] = tested on: SF-539 CNS
[42] = tested on: SK-MEL-28 melanoma
[43] = tested on: HOP-92 NSCLC
[44] = tested on: UACC-62 melanoma
[45] = tested on: SNB-75 CNS
[46] = tested on: NCI/ADR-RES ovarian
[47] = tested on: NCI-H23 lung
[48] = tested on: 786-0 renal
[49] = tested on: T-47D breast
[50] = tested on: SK-MEL-2 melanoma
[51] = tested on: RXF 393 renal
[52] = tested on: OVCAR-5 ovarian
[53] = tested on: UO-31 renal
[54] = tested on: BT-549 breast
[55] = tested on: SNB-19 CNS
[56] = tested on: SW-620 colon

Molecule `O=C(CCCc1c[nH]c2ccccc12)NC1CC(=O)c2c(Br)sc(Br)c21` (configuration not stated) has a GI50 [1] of 10.2 µM, a TGI [1] of 31.6 µM and a GI50 [2] of 10.4 µM. It also gave a TGI [2] of 29.3 µM, a GI50 [3] of 2.06 µM and a TGI [3] of 4.03 µM. The GI50 [4] was 9.05 µM, the TGI [4] was 40.5 µM and the GI50 [5] was 16.5 µM. For the same molecule, the TGI [5] was 30.4 µM, the GI50 [6] was 19.8 µM and the TGI [6] was 41.3 µM. The GI50 [7] was 16.5 µM, the TGI [7] was 32.1 µM and the GI50 [8] was 2.01 µM. For the same molecule, the TGI [8] was 5.56 µM, the GI50 [9] was 3.51 µM and the TGI [9] was 10.9 µM. For the same molecule, the GI50 [10] was 24.2 µM, the TGI [10] was 40.5 µM and the GI50 [11] was 16.4 µM. For the same molecule, the TGI [11] was 48 µM, the GI50 [12] was 9.41 µM and the TGI [12] was greater than 100 µM. It also gave a GI50 [13] of 12.9 µM, a TGI [13] greater than 100 µM and a GI50 [14] of 6.44 µM. It also gave a TGI [14] of 51.3 µM, a GI50 [15] of 18.9 µM and a TGI [15] of 37.3 µM. It also gave a GI50 [16] of 33.4 µM, a TGI [16] greater than 100 µM and a GI50 [17] of 18.3 µM. It also gave a TGI [17] of 33 µM, a GI50 [18] of 26 µM and a TGI [18] greater than 100 µM. For the same molecule, the GI50 [19] was 7.13 µM, the TGI [19] was 22 µM and the GI50 [20] was 22.7 µM. For the same molecule, the TGI [20] was 55.2 µM, the GI50 [21] was 7.29 µM and the TGI [21] was 19.9 µM. It also gave a GI50 [22] of 10.1 µM, a TGI [22] of 29.5 µM and a GI50 [23] of 19.6 µM. The TGI [23] was 35.5 µM, the GI50 [24] was 21.1 µM and the TGI [24] was 52.2 µM. It also gave a GI50 [25] of 22.7 µM, a TGI [25] of 54.4 µM and a GI50 [26] of 10.2 µM. It also gave a TGI [26] of 55.4 µM, a GI50 [27] of 10.5 µM and a TGI [27] of 27.1 µM. The GI50 [28] was 14.5 µM, the TGI [28] was 30 µM and the GI50 [29] was 5.04 µM. For the same molecule, the TGI [29] was 67.1 µM, the GI50 [30] was 1.9 µM and the TGI [30] was 3.75 µM. It also gave a GI50 [31] of 21 µM, a TGI [31] of 75.7 µM and a GI50 [32] of 19.2 µM. The TGI [32] was 48.1 µM, the GI50 [33] was 19.2 µM and the TGI [33] was 38.7 µM. The GI50 [34] was 17.8 µM, the TGI [34] was 57.3 µM and the GI50 [35] was 17.3 µM. The TGI [35] was 33 µM, the GI50 [36] was 23.5 µM and the TGI [36] was 71.2 µM. For the same molecule, the GI50 [37] was 12.8 µM, the TGI [37] was 25.9 µM and the GI50 [38] was 23.5 µM. The TGI [38] was greater than 100 µM, the GI50 [39] was 4.37 µM and the TGI [39] was greater than 100 µM. The GI50 [40] was 2.62 µM, the TGI [40] was 6.79 µM and the GI50 [41] was 23.1 µM. The TGI [41] was 50.1 µM, the GI50 [42] was 2.77 µM and the TGI [42] was 9.02 µM. The GI50 [43] was 17.9 µM, the TGI [43] was 40 µM and the GI50 [44] was 14.2 µM. It also gave a TGI [44] of 27.9 µM, a GI50 [45] of 13.9 µM and a TGI [45] of 27.7 µM. It also gave a GI50 [46] of 23.3 µM, a TGI [46] of 70.3 µM and a GI50 [47] of 12.2 µM. It also gave a TGI [47] of 26.1 µM, a GI50 [48] of 19.2 µM and a TGI [48] of 34.9 µM. It also gave a GI50 [49] of 26.5 µM, a TGI [49] greater than 100 µM and a GI50 [50] of 30.5 µM. It also gave a TGI [50] greater than 100 µM, a GI50 [51] of 14.7 µM and a TGI [51] of 80.8 µM. It also gave a GI50 [52] of 16 µM, a TGI [52] of 31.7 µM and a GI50 [53] of 22.2 µM. It also gave a TGI [53] of 63.1 µM, a GI50 [54] of 17.4 µM and a TGI [54] of 37.1 µM. The GI50 [55] was 14.3 µM, the TGI [55] was 29 µM and the GI50 [56] was 18.8 µM. For the same molecule, the TGI [56] was 41 µM.
